The values below are quoted from earlier work in patent US20200188476A1, “ANTI-MICROBIAL AGENT-POLYMER CONJUGATES AND METHODS OF USE THEREOF” (The Regents of the University of California, priority 2017, published 2020).

The test system of data set [1] is bacteria.
For data set [2] the following is noted: human, in vivo.
Data set [3] concerns bacteria. The source holds these as a separate data set.

Turning to “Polymyxin B nonapeptide [nonapeptide of polymyxin B]”, in the data set on bacteria [1], the “reduction of antibacterial activity relative to polymyxin B” value is on record as 2-64 fold. In addition, in the data set on cell culture, the “reduction of toxicity in cell culture relative to polymyxin B” value is “about 100 fold”.
As to colistin, the “overall incidence of neurotoxicity or neuropathy” value in data set [2] is given as 7.3%.
For octanoyl polymyxin B heptapeptide, the “concentration that inhibits the growth of bacteria” value with bacteria [3] was 128 µg/mL.
As for octanoyl polymyxin B nonapeptide, the “inhibition of bacterial growth” value in the data set with bacteria [3] is “very potent agents to inhibit bacterial growth”.
For octanoyl polymyxin B octapeptide, in the data set with bacteria [3], the “inhibition of bacterial growth” value is recorded as “very potent agents to inhibit bacterial growth”.
